US20190160035A1, “METHOD OF TREATMENT” (QBIOTICS LIMITED, priority 2016, published 2019)

Legend:
[1] = Example 2: serum biochemistry and haematology; format: in vivo, dogs
From the text: Individual blood samples were collected from the dogs into gel separated plain vacuettes at intervals outlined in Table 12. Plain blood samples were submitted on ice bricks by express courier to the local IDEXX laboratory which performed detailed biochemical analysis. Analysis included creatinine, protein, albumin, globulin, alkaline phosphatase, AST, gamma GT, creatine kinase, cholesterol, magnesium, calcium, phosphate, sodium, potassium, chloride, ALT, glucose, urea, amylase, bilirubin and triglycerides.
Individual blood samples were collected from the dogs into anti-coagulated (EDTA and sodium citrate) vacutainers at intervals outlined in Table 12. Blood samples were then be submitted on ice bricks by express courier to the local IDEXX laboratory, which performed detailed haematological analysis. Analysis included red blood cell count, white cell count, packed cell volume, mean corpuscular volume, mean corpuscular haemoglobin, mean corpuscular haemoglobin concentration, white cell differential count, platelets, haemoglobin, reticulocytes, PT and APTT.

[2] = test system: MCT (cutaneous and subcutaneous); experiment: Example 5: Compound 1 injection with oral prednisolone and antihistamine co-therapy, RECIST v.1.1 tumor response; format: in vivo, Canis lupus familiaris (dog)
From the text: This study investigates the efficacy and safety of Compound 1 injection for MCT treatment in the presence of corticosteroids administered under defined clinical situations.
Dogs were selected for the study if they met the criteria in Table 1 (Example 1) but where the dog has at least one MCT.
Wherever possible, the tumor and a 2 cm border surrounding the tumor was shaved prior to treatment. To deliver the drug, the needle of the dosing syringe was inserted into the tumor at the injection point and moved in a radial manner in 2- and 3-dimensions with drug delivered to the tumor mass. Study dogs were clinically examined at 2-4 and 24 hours, and 7 (+2), 14 (+2) and 28 (+2) days post-treatment (and unscheduled visits at attending veterinarian discretion).
Each supervising veterinarian was given latitude to provide and record prophylactic and supportive medications as deemed appropriate for managing potential paraneoplastic events and tumor site necrosis following Compound 1 treatment. However, prednisolone and antihistamines were used as co-therapy. Prednisolone therapy commenced on Day −1 and continued for a further 7 days. H1 and H2 antihistamine therapy (chlorpheniramine and famotidine respectively) commenced on the morning of drug treatment and continued for a further 6 days (see Table 23).
RECIST v.1.1 results are summarised in Table 28 which also includes a measure of neoadjuvant prednisolone action (potential tumor shrinkage) between screening and immediate pre-treatment tumor evaluation. Sixteen (16) dogs and eighteen (18) tumors were treated. Raw data for RECIST assessment was collected on Day 0 (immediately pre-treatment) and on Day 28 for fifteen (15) cases. […] With the remaining three (3) cases (C05-T-18, C05-V-01, and C05-V-02), the dogs were not available on Day 28 for RECIST assessment. For dog C05-T-18, the injection site was measured as CR on Days 21 and 37. […] For dog C05-V-01, the injection site was measured as PR on Days 21 and 37 (55% and 60% RECIST reduction respectively). […] For dog […], due to the progressive nature of disease, the animal was removed from study on Day 21.

SMILES: C/C=C(\C)C(=O)O[C@@H]1[C@@H](C)[C@@]2(O)[C@H]([C@@H]3C(C)(C)[C@]13OC(=O)[C@@H](C)CC)[C@@H]1O[C@]1(CO)[C@@H](O)[C@]1(O)C(=O)C(C)=C[C@H]12 [Compound 1, 12-tigloyl-13-(2-methylbutanoyl)-6,7-epoxy-4,5,9,12,13,20-hexahydroxy-1-tigliaen-3-one]
- Anaemia during the course of the study ([1]; all cohorts): No dog exhibited anaemia
- Bleeding disorder during the course of the study ([1]; all cohorts): No dog exhibited a bleeding disorder
- Haematology observations ([1]; all cohorts): fairly unremarkable
- Number of dogs with slightly elevated reticulocyte counts post treatment ([1]; all cohorts (27 dogs)): 7
- Serum biochemistry observations ([1]; all cohorts, exceptions dogs GCV-204 (AST, CK) and NVC-307 (transient AST, ALT)): fairly unremarkable
- Number of dogs with slightly lower platelet counts post treatment ([1]; platelets described as ‘clumping’): 5
- Share of cases with a CR RECIST result ([2]; 14 out of 18 cases): 78%
- Number of cases with progressive disease (PD) ([2]; Day 28, 15 cases assessed): 1
- Number of cases with complete response (CR) ([2]; Day 28, 15 cases assessed, prednisolone, chlorpheniramine, famotidine co-therapy): 13
- Tumor course beyond Day 7 post treatment ([2]; dog C05-T-09, Patnaik Grade III cutaneous MCT): continued to grow
- RECIST reduction ([2]; dog C05-V-01, Day 21): 55%
- RECIST reduction ([2]; dog C05-V-01, Day 37): 60%
- RECIST reduction of residual mass ([2]; dog C05-V-01, Day 57): 70%
- RECIST result of injection site ([2]; dog C05-V-01, Days 21 and 37): PR (partial response (PR, at least 30% decrease in the longest diameter of target lesion))
- Residual tumor after initial tumor reduction ([2]; dog C05-V-02, vulvar Patnaik Grade III MCT): residual tumor mass was evident by Day 21
- Number of cases with partial response (PR) ([2]; of 18 cases enrolled): 1
- Number of cases with progressive disease ([2]; of 18 cases enrolled): 2
- Number of cases with a CR RECIST result ([2]; out of eighteen (18) treated cases): 14
